Data: patent publication US20250346866A1, “CELL AGGREGATE DISSOCIATING AGENT” (AJINOMOTO CO., INC., priority 2023, published 2025)

Experiments:
Type in all cases: cell-based
[1] = test system: human iPS cells (1383D2 strain), CD30 expression; test: Undifferentiated marker (CD30) positive rate by flow cytometry; conditions: FIG. 7
Experimental: The undifferentiated rate was evaluated for cells 4 days after suspension culture seeding, according to the following procedure.
1×10^5 cells were quantitatively collected, centrifuged (400 g, 5 min), and the supernatant was removed. 20 μL of PE Mouse Anti-Human CD30 (BD Pharmingen™) or PE Mouse IgG1, κ Isotype Control (BD Pharmingen™) diluted 5-fold with buffer was added and the cells were left standing for 20 min at 4° C. in the dark. After washing several times with buffer, the cells were analyzed using an Attune NXT Flow Cytometer (Thermo Fisher Scientific). […] However, measurement was not performed under conditions without a step of removing EDTA by centrifugation, because cells were not obtained.

[2] = test system: human iPS cells (1383D2 strain) cell aggregates; test: Dissociation of human iPS cell aggregates by stirring with dissociation agent (micrographs, Vi-CELL viable cell density); conditions: culture medium with 10 μM Y-27632; WK11 stirred 17 min, EDTA 2.5 mM stirred 14 min; FIG. 2, FIG. 3
Experimental: The iPS cells maintenance cultured in (2) were seeded at a concentration of 1.5×10^5 cells/mL in a multi-well plate with StemFit (registered trademark) AK03N (Ajinomoto Co., Inc.) containing 10 μM Y-27632 added thereto, and cultured with stirring at a rotation speed of 70 rpm using an orbital shaker MaxQ™ 2000 CO2 Plus (Thermo Fisher Scientific) placed in a CO2 incubator at 37° C. One and three days after seeding, 50 vol % each of the medium was exchanged with AK02N, and the culture was continued until four days later to obtain cell aggregates.
To a culture medium containing the cell aggregates prepared in (3) were added Y-27632 (final concentration 10 μM) and WK11 pre-treated in (1), and the mixture was stirred for 17 min using an orbital shaker. Thereafter, the cell aggregates were sufficiently brought to a single-cell state by pipetting, and the viable cell density was measured using a live/dead cell autoanalyzer Vi-CELL XR (BECKMAN COULTER). […]
To a culture medium containing the cell aggregates prepared in (3) were added Y-27632 (final concentration 10 μM) and EDTA (final concentration 2.5 mM), and the mixture was stirred for 14 min using an orbital shaker. […] The viable cell density of the obtained cell suspension was measured using Vi-CELL XR.
The viable cell density in the culture medium was calculated from the Vi-CELL measured values in Example 1 (4), (5), and (6). […]

[3] = test system: human iPS cells (1383D2 strain); test: Suspension culture after passage: proliferation, viable cell density and aggregate formation; conditions: for proliferation in 4 days after passage (viable cell density): seeded 1.5×10^5 cells/mL, 4 days suspension culture, FIG. 6
Experimental: A new multi-well plate containing AK02N containing 10 μM Y-27632 was prepared, and the cells obtained in (4), (5), and (6) were respectively seeded at a density of 1.5×10^5 cells/mL. The cells were cultured in a CO2 incubator while stirring with an orbital shaker. One and three days after seeding, 50 vol % each of the medium was exchanged with AK02N, and the suspension culture was continued until four days later.
To accurately measure the number of viable cells, after four days of culture, under the same conditions, the following operation, including centrifugation, was performed. The entire volume of each culture medium was collected in a 15-mL conical tube, and the supernatant was removed by centrifugation (200 G, 5 min, 25° C.). Accutase™ (Nacalai Tesque Inc., 12679-54) (0.5 mL) was added and the mixture was heated at 37° C. for 15 min, after which the cell aggregates were sufficiently brought to a single-cell state by pipetting. The cells attached to the wall of the conical tube were sufficiently washed with AK02N, and the supernatant was removed by centrifugation (200 G, 5 min, 25° C.). The cells were resuspended in AK02N containing 10 μM Y-27632, and the viable cell density was measured using Vi-CELL XR.
The viable cell density in the culture medium was calculated from the Vi-CELL measured values in Example 1 (4), (5), and (6). A great difference in the viable cell density was not observed depending on the passage method. The viable cell density in the culture medium was calculated from the Vi-CELL measured values in Example 1 (7). The cells passaged using WK11 proliferated 3.4-fold in 4 days, whereas the cells passaged using EDTA without centrifugation removal proliferated 0.03-fold. Even when the centrifugation step was performed, the value was as low as 0.4-fold.

O=C(O)CN(CCN(CC(=O)O)CC(=O)O)CC(=O)O [EDTA, ethylenediaminetetraacetic acid]
undifferentiated marker (CD30) positive rate ([1]; Passage 1, 4 days after suspension culture seeding): maintained high values
undifferentiated marker (CD30) positive rate ([1]; Passage 2, 4 days after suspension culture seeding, EDTA only with centrifugation removal): maintained even after culture
state of cell aggregates after stirring (micrograph) [2]: fragmented and the intercellular binding was weakened
proliferation in 4 days after passage (viable cell density) ([3]; centrifugation step performed to remove the agent): 0.4 fold
proliferation in 4 days after passage (viable cell density) ([3]; no centrifugation removal of the dissociation agent): 0.03 fold
proliferation of passaged cells (micrograph) ([3]; suspension cultured 4 days after passage, FIG. 4): proliferated hardly
aggregate formation of passaged cells (micrograph) ([3]; suspension cultured 4 days after passage, without a step of removing EDTA by centrifugation, FIG. 4): no aggregates were formed
